What follows are compounds tested on CIRAR (canada thistle (seedling)) (assay: Pre-emergence herbicidal activity, warm season). Settings: GR80 = lowest tested rate (300, 100, 30, 10 g/ha) with 80% or greater inhibition; approx. 14 days after treating; 30/21° C.
Format: in vivo, Cirsium arvense
Summary of the method: (§1)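 GR80 values derive from percent inhibition relative to untreated plants, read roughly 14 days after sowing and pre-emergence soil-surface treatment (compound in 50:50 acetone/water; rates typically 10, 30, 100, 300 g/ha). Warm-season weeds grew at 30/21° C day/night, cool-season ones at 18/13° C; an asterisk marks activity without reaching 80% at the highest rate.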

Row | SMILES | Pre-emergence activity (GR80) CIRAR [g/ha]
1 | O=C(N1CCCC1)n1cnc(S(=O)(=O)C(F)(F)Br)n1 [Example 23, 3-(bromodifluoromethylsulfonyl)-1-(pyrrolidinocarbonyl)-1,2,4-triazole] | 300

Each compound was assayed on SINAR (wild mustard) (assay: Pre-emergence herbicidal activity, cool season). Settings: lowest tested rate with 80% or greater inhibition; rates 300, 100, 30, 10 g/ha; about 14 days.
Format: in vivo, Sinapis arvensis
Summary of the method: as §1

Row | SMILES | Pre-emergence activity GR80, SINAR [g/ha]
2 | O=C(N1CCCC1)n1cnc(S(=O)(=O)C(F)(F)Br)n1 [Example 23, 3-(bromodifluoromethylsulfonyl)-1-(pyrrolidinocarbonyl)-1,2,4-triazole] | 300

The compounds below were run on PANMI (wild proso millet) (assay: Pre-emergence herbicidal activity, warm season). Settings: GR80 = lowest tested rate (300, 100, 30, 10 g/ha) with 80% or greater inhibition; approx. 14 days after treating; 30/21° C.
Format: in vivo, Panicum miliaceum
Summary of the method: (§2)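 GR80 values, pre-emergence, soil applied at 300, 100, 30, 10 g/ha. Warm regime 30/21 °C: PANMI, DIGSA. Cool regime 18/13 °C: ALOMY, POLCO. Rating ~14 d, % inhibition vs untreated.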

Row | SMILES | Pre-emergence activity (GR80) PANMI [g/ha]
3 | O=C(N1CCCC1)n1cnc(S(=O)(=O)C(F)(F)Br)n1 [Example 23, 3-(bromodifluoromethylsulfonyl)-1-(pyrrolidinocarbonyl)-1,2,4-triazole] | 100

What follows are compounds tested on LAMPU (purple deadnettle) (assay: Pre-emergence herbicidal activity, cool season). Settings: lowest tested rate with 80% or greater inhibition; rates 300, 100, 30, 10 g/ha; about 14 days.
Format: in vivo, Lamium purpureum
Summary of the method: as §1

Row | SMILES | Pre-emergence activity GR80, LAMPU [g/ha]
4 | O=C(N1CCCC1)n1cnc(S(=O)(=O)C(F)(F)Br)n1 [Example 23, 3-(bromodifluoromethylsulfonyl)-1-(pyrrolidinocarbonyl)-1,2,4-triazole] | 100

The compounds below were run on DIGSA (large crabgrass) (assay: Pre-emergence herbicidal activity, warm season). Settings: GR80 = lowest tested rate (300, 100, 30, 10 g/ha) with 80% or greater inhibition; approx. 14 days after treating; 30/21° C.
Format: in vivo, Digitaria sanguinalis
Summary of the method: as §2

Row | SMILES | Pre-emergence activity (GR80) DIGSA [g/ha]
5 | O=C(N1CCCC1)n1cnc(S(=O)(=O)C(F)(F)Br)n1 [Example 23, 3-(bromodifluoromethylsulfonyl)-1-(pyrrolidinocarbonyl)-1,2,4-triazole] | 300

What follows are compounds tested on AEGCY (jointed goatgrass) (assay: Pre-emergence herbicidal activity, cool season). Settings: GR80 = lowest tested rate (300, 100, 30, 10 g/ha) with 80% or greater inhibition; approx. 14 days after treating; 18/13° C.
Format: in vivo, Aegilops cylindrica
Experimental: (§3) Tables 5 to 8 summarize results of tests conducted as described below to determine the pre-emergence herbicidal activity, in the form of a GR80 value, of illustrative compounds of this invention. […] Compounds of the invention were typically applied at rates of 300, 100, 30, and 10 g/ha. Where herbicidal activity was evident but 80% inhibition was not achieved at the highest rate tested, an asterisk (*) is shown in the following tables.
(§4) The pre-emergence tests were conducted by the following procedure. Topsoil was sieved to pass through a 1.27 cm screen. Fertilizer was added to the topsoil and the mixture was then sterilized by heating. The topsoil mixture was placed in a pot and compacted to a depth of 1.0 to 1.25 cm from the top of the pot. Seeds of each of several monocotyledonous and dicotyledonous annual plant species were placed on top of the soil. Additional soil was subsequently placed over the seeds to level-fill the pot. A known amount of each test compound dissolved or suspended in an appropriate organic solvent was diluted with a 50:50 mix of acetone and water and applied to the surface of the soil. After treatment the plants were placed in a greenhouse where they received 0.64 cm of overhead irrigation. All subsequent watering consisted of a light overhead mist and/or subirrigation as needed for germination and growth. Tables 5 and 6 below relate to warm season plant species which were placed after pre-emergence treatment in a greenhouse with a 30/21° C. day/night temperature regime. Tables 7 and 8 below relates to cool season plant species placed after pre-emergence treatment in a greenhouse or growth chamber with an 18/13° C. day/night temperature regime.
(§5) Approximately 14 days after planting and treating, the plants were observed and herbicidal efficacy recorded as percent inhibition by comparison with untreated plants.
(§6) The plant species usually regarded as weeds which were utilized in the tests are identified in the tables below according to the following legend, in which “d” indicates a dicotyledonous species and “m” a monocotyledonous species. All monocotyledonous species included in the tests herein are grasses.

Row | SMILES | Pre-emergence activity (GR80) AEGCY [g/ha]
6 | O=C(N1CCCC1)n1cnc(S(=O)(=O)C(F)(F)Br)n1 [Example 23, 3-(bromodifluoromethylsulfonyl)-1-(pyrrolidinocarbonyl)-1,2,4-triazole] | 300

Each compound was assayed on SETFA (giant foxtail) (assay: Pre-emergence herbicidal activity, warm season). Settings: GR80 = lowest tested rate (300, 100, 30, 10 g/ha) with 80% or greater inhibition; approx. 14 days after treating; 30/21° C.
Format: in vivo, Setaria faberi
Summary of the method: (§7)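 Seeds sown in sterilised fertilised topsoil received surface-applied compound in 50:50 acetone/water, typically at 300, 100, 30 and 10 g/ha, then greenhouse-grown at 30/21° C (warm-season species) or 18/13° C (cool-season species). Percent inhibition versus untreated plants was scored at about 14 days, giving GR80; an asterisk marks activity short of 80% at the top rate.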

Row | SMILES | Pre-emergence activity (GR80) SETFA [g/ha]
7 | O=C(N1CCCC1)n1cnc(S(=O)(=O)C(F)(F)Br)n1 [Example 23, 3-(bromodifluoromethylsulfonyl)-1-(pyrrolidinocarbonyl)-1,2,4-triazole] | 100

These compounds were tested on POLCO (wild buckwheat) (assay: Pre-emergence herbicidal activity, cool season). Settings: lowest tested rate with 80% or greater inhibition; rates 300, 100, 30, 10 g/ha; about 14 days.
Format: in vivo, Polygonum convolvulus
Summary of the method: as §2

Row | SMILES | Pre-emergence activity GR80, POLCO [g/ha]
8 | O=C(N1CCCC1)n1cnc(S(=O)(=O)C(F)(F)Br)n1 [Example 23, 3-(bromodifluoromethylsulfonyl)-1-(pyrrolidinocarbonyl)-1,2,4-triazole] | 30

Each compound was assayed on AMARE (redroot pigweed) (assay: Pre-emergence herbicidal activity, warm season). Settings: GR80 = lowest tested rate (300, 100, 30, 10 g/ha) with 80% or greater inhibition; approx. 14 days after treating; 30/21° C.
Format: in vivo, Amaranthus retroflexus
Summary of the method: as §1

Row | SMILES | Pre-emergence activity (GR80) AMARE [g/ha]
9 | O=C(N1CCCC1)n1cnc(S(=O)(=O)C(F)(F)Br)n1 [Example 23, 3-(bromodifluoromethylsulfonyl)-1-(pyrrolidinocarbonyl)-1,2,4-triazole] | 300

Each compound was assayed on CONAR (field bindweed) (assay: Pre-emergence herbicidal activity, warm season). Settings: GR80 = lowest tested rate (300, 100, 30, 10 g/ha) with 80% or greater inhibition; approx. 14 days after treating; 30/21° C.
Format: in vivo, Convolvulus arvensis
Experimental: as §3, §4, §5, §6

Row | SMILES | Pre-emergence activity (GR80) CONAR [g/ha]
10 | O=C(N1CCCC1)n1cnc(S(=O)(=O)C(F)(F)Br)n1 [Example 23, 3-(bromodifluoromethylsulfonyl)-1-(pyrrolidinocarbonyl)-1,2,4-triazole] | 300

Each compound was assayed on VERPE (creeping speedwell) (assay: Pre-emergence herbicidal activity, cool season). Settings: lowest tested rate with 80% or greater inhibition; rates 300, 100, 30, 10 g/ha; about 14 days.
Format: in vivo, Veronica persicaria
Summary of the method: as §1

Row | SMILES | Pre-emergence activity GR80, VERPE
11 | O=C(N1CCCC1)n1cnc(S(=O)(=O)C(F)(F)Br)n1 [Example 23, 3-(bromodifluoromethylsulfonyl)-1-(pyrrolidinocarbonyl)-1,2,4-triazole] | [empty]

Each compound was assayed on SETVI (green foxtail) (assay: Pre-emergence herbicidal activity, cool season). Settings: GR80 = lowest tested rate (300, 100, 30, 10 g/ha) with 80% or greater inhibition; approx. 14 days after treating; 18/13° C.
Format: in vivo, Setaria viridis
Summary of the method: as §1

Row | SMILES | Pre-emergence activity (GR80) SETVI [g/ha]
12 | O=C(N1CCCC1)n1cnc(S(=O)(=O)C(F)(F)Br)n1 [Example 23, 3-(bromodifluoromethylsulfonyl)-1-(pyrrolidinocarbonyl)-1,2,4-triazole] | 100

These compounds were tested on ALOMY (blackgrass) (assay: Pre-emergence herbicidal activity, cool season). Settings: GR80 = lowest tested rate (300, 100, 30, 10 g/ha) with 80% or greater inhibition; approx. 14 days after treating; 18/13° C.
Format: in vivo, Alopecurus myosuroides
Summary of the method: as §2

Row | SMILES | Pre-emergence activity (GR80) ALOMY [g/ha]
13 | O=C(N1CCCC1)n1cnc(S(=O)(=O)C(F)(F)Br)n1 [Example 23, 3-(bromodifluoromethylsulfonyl)-1-(pyrrolidinocarbonyl)-1,2,4-triazole] | 300

Each compound was assayed on POROL (common purslane) (assay: Pre-emergence herbicidal activity, warm season). Settings: GR80 = lowest tested rate (300, 100, 30, 10 g/ha) with 80% or greater inhibition; approx. 14 days after treating; 30/21° C.
Format: in vivo, Portulaca oleracea
Summary of the method: as §1

Row | SMILES | Pre-emergence activity (GR80) POROL [g/ha]
14 | O=C(N1CCCC1)n1cnc(S(=O)(=O)C(F)(F)Br)n1 [Example 23, 3-(bromodifluoromethylsulfonyl)-1-(pyrrolidinocarbonyl)-1,2,4-triazole] | 300

The compounds below were run on SORHA (johnsongrass (seedling)) (assay: Pre-emergence herbicidal activity, warm season). Settings: GR80 = lowest tested rate (300, 100, 30, 10 g/ha) with 80% or greater inhibition; approx. 14 days after treating; 30/21° C.
Format: in vivo, Sorghum halepense
Summary of the method: as §7

Row | SMILES | Pre-emergence activity (GR80) SORHA [g/ha]
15 | O=C(N1CCCC1)n1cnc(S(=O)(=O)C(F)(F)Br)n1 [Example 23, 3-(bromodifluoromethylsulfonyl)-1-(pyrrolidinocarbonyl)-1,2,4-triazole] | 300

These compounds were tested on STEME (common chickweed) (assay: Pre-emergence herbicidal activity, cool season). Settings: lowest tested rate with 80% or greater inhibition; rates 300, 100, 30, 10 g/ha; about 14 days.
Format: in vivo, Stellaria media
Summary of the method: as §1

Row | SMILES | Pre-emergence activity GR80, STEME [g/ha]
16 | O=C(N1CCCC1)n1cnc(S(=O)(=O)C(F)(F)Br)n1 [Example 23, 3-(bromodifluoromethylsulfonyl)-1-(pyrrolidinocarbonyl)-1,2,4-triazole] | 100

These compounds were tested on SASKR (russian thistle) (assay: Pre-emergence herbicidal activity, cool season). Settings: lowest tested rate with 80% or greater inhibition; rates 300, 100, 30, 10 g/ha; about 14 days.
Format: in vivo, Salsola kali
Summary of the method: as §1

Row | SMILES | Pre-emergence activity GR80, SASKR
17 | O=C(N1CCCC1)n1cnc(S(=O)(=O)C(F)(F)Br)n1 [Example 23, 3-(bromodifluoromethylsulfonyl)-1-(pyrrolidinocarbonyl)-1,2,4-triazole] | [empty]

Each compound was assayed on CHEAL (common lambsquarters) (assay: Pre-emergence herbicidal activity, warm season). Settings: GR80 = lowest tested rate (300, 100, 30, 10 g/ha) with 80% or greater inhibition; approx. 14 days after treating; 30/21° C.
Format: in vivo, Chenopodium album
Summary of the method: as §1

Row | SMILES | Pre-emergence activity (GR80) CHEAL [g/ha]
18 | O=C(N1CCCC1)n1cnc(S(=O)(=O)C(F)(F)Br)n1 [Example 23, 3-(bromodifluoromethylsulfonyl)-1-(pyrrolidinocarbonyl)-1,2,4-triazole] | 300

These compounds were tested on GALAP (catchweed bedstraw) (assay: Pre-emergence herbicidal activity, cool season). Settings: lowest tested rate with 80% or greater inhibition; rates 300, 100, 30, 10 g/ha; about 14 days.
Format: in vivo, Galium aparine
Summary of the method: as §1

Row | SMILES | Pre-emergence activity GR80, GALAP [g/ha]
19 | O=C(N1CCCC1)n1cnc(S(=O)(=O)C(F)(F)Br)n1 [Example 23, 3-(bromodifluoromethylsulfonyl)-1-(pyrrolidinocarbonyl)-1,2,4-triazole] | 300

Each compound was assayed on AGSST (creeping bentgrass) (assay: Pre-emergence herbicidal activity, cool season). Settings: GR80 = lowest tested rate (300, 100, 30, 10 g/ha) with 80% or greater inhibition; approx. 14 days after treating; 18/13° C.
Format: in vivo, Agrostis stolonifera
Summary of the method: as §1

Row | SMILES | Pre-emergence activity (GR80) AGSST [g/ha]
20 | O=C(N1CCCC1)n1cnc(S(=O)(=O)C(F)(F)Br)n1 [Example 23, 3-(bromodifluoromethylsulfonyl)-1-(pyrrolidinocarbonyl)-1,2,4-triazole] | 100

The compounds below were run on LOLMG (annual ryegrass) (assay: Pre-emergence herbicidal activity, cool season). Settings: GR80 = lowest tested rate (300, 100, 30, 10 g/ha) with 80% or greater inhibition; approx. 14 days after treating; 18/13° C.
Format: in vivo, Lolium multiflorum
Summary of the method: as §1

Row | SMILES | Pre-emergence activity (GR80) LOLMG [g/ha]
21 | O=C(N1CCCC1)n1cnc(S(=O)(=O)C(F)(F)Br)n1 [Example 23, 3-(bromodifluoromethylsulfonyl)-1-(pyrrolidinocarbonyl)-1,2,4-triazole] | 300

— patent publication US6461997B1, “Triazole sulfones having herbicidal activity” (Monsanto Technology LLC, priority 1999, dated 2002)
